“Also recorded” adds a separate entry of the source.
Assays:
[1] = target: T1, DENV2 NS2B-CLuc-NS3-119-NLuc-NS3 120-to-NS3_C (N2CN3N) (UniProt P08659+P14340); type: biochemical; settings: for suppression of NPGB-induced SLC enhancement / effect of compound alone on background SLC: compound 40 μM; for suppression of NPGB-induced SLC enhancement: N2CN3N 150 nM; for effect of compound alone on background SLC: no NPGB, compared to DMSO; for inhibition of NPGB-induced SLC enhancement, concentration series: serial dilution of compound
T1 construct: pairs of primers of 1394F and 1440C for NS2B and 1476F and 1660C for NS3; made in house; host or cells: Escherichia coli Rosetta 2(DE3)
T1 sequence (P08659 whole entry, looked up, other chains not shown): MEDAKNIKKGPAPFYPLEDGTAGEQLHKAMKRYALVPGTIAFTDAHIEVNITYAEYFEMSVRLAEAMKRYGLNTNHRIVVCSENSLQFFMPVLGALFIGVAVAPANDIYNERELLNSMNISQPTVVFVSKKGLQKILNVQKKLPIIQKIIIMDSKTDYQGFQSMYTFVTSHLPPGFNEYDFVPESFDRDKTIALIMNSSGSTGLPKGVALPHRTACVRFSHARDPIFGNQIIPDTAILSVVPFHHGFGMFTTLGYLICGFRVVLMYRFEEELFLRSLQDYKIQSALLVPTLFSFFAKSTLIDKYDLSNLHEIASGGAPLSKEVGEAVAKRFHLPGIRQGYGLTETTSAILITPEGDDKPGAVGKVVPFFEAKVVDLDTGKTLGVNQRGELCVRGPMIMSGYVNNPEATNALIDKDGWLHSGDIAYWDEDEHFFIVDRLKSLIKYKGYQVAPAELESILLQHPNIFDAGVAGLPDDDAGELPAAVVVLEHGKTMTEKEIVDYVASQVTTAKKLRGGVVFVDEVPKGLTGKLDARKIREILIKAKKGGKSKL

N2CN3N A125C mutant = target: T2, N2CN3N A125C mutant (UniProt P08659+P14340); type: biochemical
T2 construct: pairs of primers of 1394F and 1440C for NS2B and 1476F and 1660C for NS3; made in house; host or cells: Escherichia coli Rosetta 2(DE3)

[2] = target: T3, full-length firefly luciferase (FLuc) (Photinus pyralis, UniProt P08659); type: biochemical; settings: FLuc 150 nM, compound 30 μM
T3 construct: or full length Firefly luciferase (150 nM final concentration)
T3 sequence (P08659 whole entry): as the sequence (P08659 whole entry, looked up, other chains not shown) above

DENV2 [3] = settings: A549 cells, compound at 1, 10 and 100 μM, 48 h post-infection
in vitro = settings: human
DENV2 [4] = assay: microbe, parasite or virus in culture; settings: Dengue virus, A549, 48 h, read-out: EC50, DENV2 viral reduction
N2CN3N A125W mutant = target: T4, N2CN3N A125W mutant (UniProt P08659+P14340); type: biochemical; settings: A125W mutant 150 nM, NPGB 30 μM
T4 construct: pairs of primers of 1394F and 1440C for NS2B and 1476F and 1660C for NS3; made in house; host or cells: Escherichia coli Rosetta 2(DE3)

Row | Compound | effect on NPGB-triggered SLC enhancement of WT N2CN3N [1] | effect on luciferase (baseline SLC) activity of WT N2CN3N [1] | effect on baseline SLC signal of A125C mutant (N2CN3N A125C mutant; DTNB 30 μM alone) | effect on NPGB-triggered SLC enhancement of A125C mutant (N2CN3N A125C mutant; DTNB 30 μM with NPGB 30 μM) | effect on luciferase activity of full-length FLuc [2] | suppression of NPGB-induced SLC enhancement ([1]; NPGB 30 μM) | effect of compound alone on background SLC [1] | inhibition of NPGB-induced SLC enhancement, concentration series ([1]; NPGB 30 μM) | DENV2 viral production (titer) relative to DMSO control (DENV2 [3]) | CC50 (in vitro) [µM] | EC50 (DENV2 [4]) [µM] | SLC enhancement compared to DMSO control ([1]; WT N2CN3N 150 nM, NPGB 30 μM) [fold] | SLC enhancement compared to DMSO control (N2CN3N A125C mutant; A125C mutant 150 nM, NPGB 30 μM) [fold] | SLC enhancement upon addition of active-site inhibitor (N2CN3N A125W mutant)
1 | O=C(O)c1cc(SSc2ccc([N+](=O)[O-])c(C(=O)O)c2)ccc1[N+](=O)[O-] [DTNB, 5,5'-dithio-bis-[2-nitrobenzoic acid]] | significantly abolished the active site inhibitor NPGB-triggered SLC enhancement | did not significantly affect the luciferase activity | only slightly decreased the baseline SLC signal | completely abolished the SLC enhancement | do not affect the luciferase activity; also recorded: did not significantly affect the luciferase activity | – | – | – | – | – | – | – | – | –
2 | O=C(Nc1ccc(Nc2ccncc2)cc1)c1ccc(Nc2ccnc3ccc([N+](=O)[O-])cc23)cc1 [NSC146771] | – | – | – | – | – | abolish the SLC enhancement induced by NPGB to the background level | did not have significant effect on background SLC | did not inhibit the NPGB-induced SLC enhancement until very high concentration | no appreciable effect; also recorded: did not show any inhibition | 82 | > 100 | – | – | –
3 | Cn1ccc(=Nc2ccc(NC(=O)c3ccc(N=c4ccn(C)c5ccc([N+](=O)[O-])cc45)cc3)cc2)cc1 [NSC260594] | – | – | – | – | – | abolish the SLC enhancement induced by NPGB to the background level | did not have significant effect on background SLC | did not inhibit the NPGB-induced SLC enhancement until very high concentration | significantly reduced | > 500 | 13.5 | – | – | –
4 | Nitrophenyl p-guanidinobenzoate [NPGB] | – | – | – | – | do not affect the luciferase activity; also recorded: did not have any effects | – | – | – | – | – | – | 4.2 | 2.2 | SLC enhancement was not observed
